Test results as given in patent US20240172752A1, “7-OXA-3,4-DIAZABICYCLO[4.1.0]HEPT-4-EN-2-ONE COMPOUND AND HERBICIDE” (Nippon Soda Co., Ltd., priority 2021, published 2024).

Key:
[1] = test system: Amaranthus blitum; assay: Soil treatment herbicidal test, weed killing rate, Amaranthus blitum; type: in vivo; conditions: 672 h, 250 g per hectare, after 4 weeks, read-out: herbicidal activity (weed killing rate) with respect to Amaranthus blitum
Protocol: (§1) POA allylphenyl ether (4.1 parts by weight), POE-POP glycol (1 part by weight), POE sorbitan laurate (0.8 parts by weight), glycerin (2.6 parts by weight), dimethylformamide (65.9 parts by weight), N-methylpyrrolidone (5.1 parts by weight), cyclohexanone (15.4 parts by weight), and aromatic hydrocarbons (5.1 parts by weight) were mixed and dissolved to prepare an emulsion. The compound of the present invention (4 mg) was dissolved in this emulsion (100 μL) to prepare a test emulsion. POA means “polyoxyalkylene”, POE means “polyoxyethylene”, and POP means “polyoxypropylene”.
(§2) A 70 cm^2 pot was filled with soil, and seeds of Digitaria ciliaris, Setaria faberi, Abutilon theophrasti and Amaranthus blitum were sown into the surface layer which was covered lightly with soil. The next day, the above test emulsion was diluted so as to achieve a predetermined amount of active ingredient and sprayed on the soil surface with a small sprayer at a spray water volume of 2,860 L per hectare.
(§3) After 4 weeks, the above ground weights of weeds in the untreated and treated areas were measured for each weed, and the weed killing rate was calculated by the following calculation formula.
(§4) Weed killing rate (%)=[(above ground weight of weeds in untreated area)−(above ground weight of weeds in treated area)/(above ground weight of weeds in untreated area)]×100

[2] = test system: Abutilon theophrasti; assay: Soil treatment herbicidal test, weed killing rate, Abutilon theophrasti; type: in vivo; conditions: 672 h, 250 g per hectare, after 4 weeks, read-out: herbicidal activity (weed killing rate) with respect to Abutilon theophrasti
Protocol: as §1, §2, §3, §4

Row | Structure (SMILES) | melting point [°C] | pest or weed control at 250 g/ha [1] [%] | pest or weed control at 250 g/ha [2] [%]
1 | COC12OC1(c1ccc(C(F)(F)F)nc1S(C)(=O)=O)C=NN(C)C2=O (centres unmarked) [Compound A-1] | – | ≥ 80 | ≥ 80
2 | COC12OC1(c1ncc(Cl)cc1S(C)(=O)=O)C=NN(C)C2=O (centres unmarked) [Compound A-2] | – | – | ≥ 80
3 | COC12OC1(c1ccc(C(F)(F)F)nc1S(=O)(=O)N1CCOCC1)C=NN(C)C2=O (centres unmarked) [Compound A-4] | – | ≥ 80 | ≥ 80
4 | COCCOCc1nc(C(F)(F)F)ccc1C12C=NN(C)C(=O)C1(OC)O2 (centres unmarked) [Compound A-5] | – | ≥ 80 | ≥ 80
5 | COC12OC1(c1ncc(C(F)(F)F)cc1S(C)(=O)=O)C=NN(C)C2=O (centres unmarked) [Compound A-6] | – | ≥ 80 | ≥ 80
6 | COC12OC1(c1cc3cccnc3nc1C(F)(F)F)C=NN(C)C2=O (centres unmarked) [Compound A-7] | 203 to 210 | ≥ 80 | ≥ 80
7 | COC12OC1(c1cnc(C(F)(F)F)cc1S(C)(=O)=O)C=NN(C)C2=O (centres unmarked) [Compound A-8] | – | ≥ 80 | ≥ 80
8 | COC12OC1(c1nn(C)c(=O)c(C)c1Cl)C=NN(C)C2=O (centres unmarked) [Compound A-23] | 153 to 155 | – | ≥ 80
9 | COC12OC1(c1ccc(C(F)(F)F)c3ncccc13)C=NN(C)C2=O (centres unmarked) [Compound A-24] | 171 to 172 | ≥ 80 | ≥ 80
10 | COC12OC1(c1cc(C(F)(F)F)nn1CS(C)(=O)=O)C=NN(C)C2=O (centres unmarked) [Compound A-25] | – | ≥ 80 | ≥ 80

More lines, main results first:

Row | melting point [°C] | Structure (SMILES) | pest or weed control at 250 g/ha [1] [%] | pest or weed control at 250 g/ha [2] [%]
11 | 238 to 239 | COC12OC1(c1cc3cccnc3c(Cl)c1C(F)(F)F)C=NN(C)C2=O (centres unmarked) [Compound A-9] | – | –
12 | 180 to 182 | COC12OC1(c1nn(C)c(=O)n(-c3ccc(F)cc3)c1=O)C=NN(C)C2=O (centres unmarked) [Compound A-10] | – | –
13 | 128 to 130 | COC12OC1(c1ccc(C(F)(F)F)n(C)c1=O)C=NN(C)C2=O (centres unmarked) [Compound A-11] | – | –
14 | 191 to 194 | COC12OC1(c1cn(C)c(=O)n(-c3ccc(F)cc3)c1=O)C=NN(C)C2=O (centres unmarked) [Compound A-17] | – | –
15 | 175 to 179 | COC12OC1(c1cc3ccncc3n(-c3ccc(F)cc3)c1=O)C=NN(C)C2=O (centres unmarked) [Compound A-18] | – | –
